Source: patent US7294637B2 (Sepracor, Inc., priority 2000, dated 2007)
Where two headings read alike, the source gives them in different places.

Columns and labels:
rat = experiment: Acute toxicity assessment, maximum tolerated dose i.v., rat; type: in vivo; conditions: rats, 30 mg/kg i.v.
Procedure: (§1) An in vivo evaluation was carried out to determine the maximum tolerated dose of numerous test compounds in two animal species (mouse and rat). The compounds were administered i.v. and the animals were then observed for 72 h. Compounds 114, 115, 113, 110, 124, 125, 129, and 130 were solubilized in 5% dextrose (w/v)/polyethylene glycol 400 (4:1 v/v). Compounds 126, 127, 131, and 132 were solubilized in 10% hydroxypropyl-β-cyclodextrin (w/v).

Sprague-Dawley rats [1] = experiment: Spontaneous locomotor activity in rats (Example 123); type: in vivo, rat; conditions: 20 mg/kg i.p., 60 minutes after administration
Procedure: Male Sprague-Dawley rats, (Iffa Credo, Saint-Germain/L'Arbresle, France), weighing 200-250 g at the beginning of the study, were used.
During acclimatization period, rats were housed, 2 or 3 per cage, in Makrolon type III cages, in the animal room (temperature: 20±2° C., humidity: minimum 45%, air changes:>12 per hour, light/dark cycle of 12 h/12 h [on at 7:00 A.M.]). Animals were allowed a minimum of 5 days period before experiment for acclimatization.
Rats received food (TrouwNutrition, Vigny, France) and water (tap water in water bottle) ad libitum. Rats were placed on a sawdust bedding in their cages (Goldchips, Trouw Nutrition, Vigny, France). On the day before experiments, food was withdrawn to have animals fasted overnight.
On the day of experiment, test item(s) were solubilized in 5% dextrose (w/v)/polyethylene glycol (PEG) 400 (4:1 v/v).
All test compounds were administered at 20 mg/kg as a single i.p. dose.
Twenty, 60 and 120 minutes after administration, rats were placed in a plastic box 30×30 cm in a room with low light intensity (maximum 50 lux). Locomotor activity was determined during 20 min periods using a video image analyzer (Videotrack, View Point, France). Number of occurences, distance and duration of fast and slow movements, number of occurences and duration of periods of inactivity and number of rears were measured.

serotonin transporter [2] = target: T1, serotonin transporter (Homo sapiens, UniProt P31645); experiment: 5-HT uptake: displacement of serotonin ligands in vitro (methods of Gu et al.); type: binding
T1 sequence (P31645 whole entry): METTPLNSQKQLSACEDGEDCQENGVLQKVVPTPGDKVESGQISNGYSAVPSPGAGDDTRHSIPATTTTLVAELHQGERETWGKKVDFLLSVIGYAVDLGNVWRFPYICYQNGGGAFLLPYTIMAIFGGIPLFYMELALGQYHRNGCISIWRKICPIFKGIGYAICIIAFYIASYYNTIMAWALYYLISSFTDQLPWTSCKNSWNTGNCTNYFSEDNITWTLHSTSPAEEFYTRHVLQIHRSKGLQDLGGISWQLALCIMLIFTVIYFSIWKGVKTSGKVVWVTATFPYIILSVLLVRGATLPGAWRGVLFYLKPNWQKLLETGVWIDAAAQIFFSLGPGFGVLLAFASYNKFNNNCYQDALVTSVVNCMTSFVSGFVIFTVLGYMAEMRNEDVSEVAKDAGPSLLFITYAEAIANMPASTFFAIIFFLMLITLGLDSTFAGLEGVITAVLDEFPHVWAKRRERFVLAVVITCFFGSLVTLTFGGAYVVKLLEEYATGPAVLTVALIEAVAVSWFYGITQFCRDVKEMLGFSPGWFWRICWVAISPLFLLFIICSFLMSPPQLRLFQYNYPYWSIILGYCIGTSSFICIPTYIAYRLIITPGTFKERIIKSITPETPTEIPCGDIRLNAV

serotonin transporter [3] = target: T1, serotonin transporter; experiment: Functional activity, serotonin uptake inhibition in human HEK-293 cell lines; type: cell-based; design: expressed in transfected cells; host or cells: HEK-293; conditions: 5-HT Uptake, Functional Assays (antagonism, EC50, nM)
[4] = target: T2, norepinephrine transporter (Homo sapiens, UniProt P23975); experiment: NE uptake: displacement of norephinephrine ligands in vitro (methods of Galli et al.); type: binding
T2 sequence (P23975 whole entry): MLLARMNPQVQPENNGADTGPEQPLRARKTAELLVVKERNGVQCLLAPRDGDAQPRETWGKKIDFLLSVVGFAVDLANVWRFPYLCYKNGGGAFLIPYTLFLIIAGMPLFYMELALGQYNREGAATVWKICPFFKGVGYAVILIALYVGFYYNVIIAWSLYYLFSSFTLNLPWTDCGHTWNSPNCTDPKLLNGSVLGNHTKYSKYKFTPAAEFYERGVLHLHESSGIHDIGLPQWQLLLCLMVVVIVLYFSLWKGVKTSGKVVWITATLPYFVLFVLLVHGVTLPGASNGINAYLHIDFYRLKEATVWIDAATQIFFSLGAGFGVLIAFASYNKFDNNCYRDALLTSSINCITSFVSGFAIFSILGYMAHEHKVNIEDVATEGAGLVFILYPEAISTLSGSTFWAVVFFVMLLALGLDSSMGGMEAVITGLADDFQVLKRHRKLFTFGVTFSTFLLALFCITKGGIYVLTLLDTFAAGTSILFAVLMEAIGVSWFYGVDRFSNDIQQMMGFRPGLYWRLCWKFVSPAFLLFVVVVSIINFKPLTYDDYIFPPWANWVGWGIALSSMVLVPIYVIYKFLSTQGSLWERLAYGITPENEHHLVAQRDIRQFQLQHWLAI

dopamine transporter [5] = target: dopamine transporter (Homo sapiens, UniProt Q01959); experiment: DA uptake: displacement of dopamine ligands in vitro (methods of Gu et al.); conditions: DA Uptake, Uptake Profile (IC50, nM), displacement of dopamine ligands in vitro
Chain of dopamine transporter (Homo sapiens, UniProt Q01959) (Q01959 whole entry): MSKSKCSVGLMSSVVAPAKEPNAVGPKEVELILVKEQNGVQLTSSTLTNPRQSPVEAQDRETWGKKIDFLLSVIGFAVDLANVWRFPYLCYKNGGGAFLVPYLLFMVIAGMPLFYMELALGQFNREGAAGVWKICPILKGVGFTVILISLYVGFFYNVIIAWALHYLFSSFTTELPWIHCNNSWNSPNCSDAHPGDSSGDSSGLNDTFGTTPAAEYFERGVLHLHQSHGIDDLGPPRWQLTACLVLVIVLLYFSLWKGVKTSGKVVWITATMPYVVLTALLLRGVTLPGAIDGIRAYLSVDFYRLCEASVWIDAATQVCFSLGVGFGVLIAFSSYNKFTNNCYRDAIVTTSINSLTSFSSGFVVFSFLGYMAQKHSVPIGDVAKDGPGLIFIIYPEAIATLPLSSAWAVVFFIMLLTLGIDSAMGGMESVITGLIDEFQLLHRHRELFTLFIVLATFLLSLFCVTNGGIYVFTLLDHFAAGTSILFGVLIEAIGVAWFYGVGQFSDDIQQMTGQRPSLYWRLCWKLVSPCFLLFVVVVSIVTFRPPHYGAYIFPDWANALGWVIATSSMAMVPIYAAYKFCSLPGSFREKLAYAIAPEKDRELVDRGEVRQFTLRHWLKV

[6] = target: T2, norepinephrine transporter; experiment: Functional activity, norephinephrine uptake inhibition in MDCK cell lines; type: cell-based
mouse = experiment: Acute toxicity assessment, maximum tolerated dose i.v., mouse; type: in vivo; conditions: mice, 30 mg/kg i.v.
Procedure: as §1

DAT [7] = target: T3, DAT (Homo sapiens, UniProt Q01959); experiment: cell-based; design: expressed in transfected cells; conditions: hDAT cell line; read-out: DA Uptake, Functional Assays (antagonism, EC50)
T3 sequence (Q01959 whole entry): as above

[8] = rodents, ex vivo binding; cited from earlier work
rats and monkeys = conditions: cited from earlier work; for effect on self-administration of cocaine: rats and monkeys
[9] = baboon, cited from earlier work
[10] = cited from earlier work; for time of peak uptake into the brain: dosed intravenously; for half-life in the brain: intravenous
DAT [11] = target: T3, DAT; conditions: dosed orally, 60 mg; cited from earlier work
Sprague-Dawley rats [12] = experiment: Spontaneous locomotor activity in rats (Example 141); type: in vivo, rat; conditions: 10 mg/kg i.p.
Procedure: The effect of 124 and 126 on spontaneous locomotor activity in rats was determined according to the procedures outlined by Silverman et al. (Motor Activity. In “Animal behavior in the laboratory”, Chapman and Hall eds, London, p. 79-92, 1978) and Boissier et al. (Arch. Int. Pharmacodyn. 1965, 158, 212. )
Test items and test item vehicles were administered to male Sprague-Dawley rats (n=10) as a single i.p. dose (vehicle A=10% hydroxypropyl-β-cyclodextrin in water; vehicle B=4:1 5% aqueous dextrose:PEG 400). […] Locomotor activity was determined during 20 minute periods using video image analyzers. Images recorded with video cameras were digitalized and displacements of the center of gravity of the digital image spot were tracked and analyzed. When the speed of displacement of the center of gravity of the spot was below 4.26 cm/sec, the movement was considered as inactivity. When this speed was between 4.26 and 6.75 cm/sec, the movement was considered as a small movement. When this speed was above 6.75 cm/sec, the movement was considered as a large movement. The number of occurrences, distance and duration of fast and slow movements, number of occurrences and duration of periods of inactivity and number of rears were measured.

Sprague-Dawley rats [13] = experiment: Spontaneous locomotor activity in rats, 1-24 hours (Example 223); type: in vivo, rat; conditions: 10 mg/kg i.p.
Procedure: The effect of 124 and 126 on spontaneous locomotor activity in rats was determined according to the procedures outlined by Silverman et al. (Motor Activity. In “Animal behavior in the laboratory”, Chapman and Hall eds, London, p. 79-92, 1978) and Boissier et al. (Arch. Int. Pharmacodyn. 1965, 158, 212. ) Test items and test item vehicles were administered to male Sprague-Dawley rats (n=10) as a single i.p. dose. One, three, five, eight and twenty four hours following administration, rats were placed in a plastic box 30×30 cm in a room with low light intensity (maximum 50 lux). Locomotor activity was determined during 20 minute periods using video image analyzers. Images recorded with video cameras were digitalized and displacements of the center of gravity of the digital image spot were tracked and analyzed. When the speed of displacement of the center of gravity of the spot was below 4.26 cm/sec, the movement was considered as inactivity. When this speed was between 4.26 and 6.75 cm/sec, the movement was considered as a small movement. When this speed was above 6.75 cm/sec, the movement was considered as a large movement. The number of occurrences, distance and duration of fast and slow movements, number of occurrences and duration of periods of inactivity and number of rears were measured.

ICR derived mice = experiment: In vivo evaluation of 4: acute toxic symptoms, autonomic effects and mortality after i.v. dosing; design: species or system mouse; conditions: i.v., 5, 10, 20, and 30 mk/kg
Procedure: Compound 4 was administered i.v. to a group of 3 ICR derived male or female mice (˜22 gms) and observed for the presence of acute toxic symptoms (mortality, convulsions, tremors, muscle relaxation, sedation, etc.) and autonomic effects (diarrhea, salvation, lacrimation, vasodilation, piloerection, etc) during first 5 min (i.v).
Compound 4 was administered at doses of 5, 10, 20, and 30 mk/kg. […] After monitoring daily for 3 days, no mortality was observed.

dopamine transporter [14] = target: dopamine transporter (Rattus norvegicus, UniProt P23977); conditions: read-out: binding affinity for the dopamine transporter (IC50); cited from earlier work
Chain of dopamine transporter (Rattus norvegicus, UniProt P23977) (P23977 whole entry): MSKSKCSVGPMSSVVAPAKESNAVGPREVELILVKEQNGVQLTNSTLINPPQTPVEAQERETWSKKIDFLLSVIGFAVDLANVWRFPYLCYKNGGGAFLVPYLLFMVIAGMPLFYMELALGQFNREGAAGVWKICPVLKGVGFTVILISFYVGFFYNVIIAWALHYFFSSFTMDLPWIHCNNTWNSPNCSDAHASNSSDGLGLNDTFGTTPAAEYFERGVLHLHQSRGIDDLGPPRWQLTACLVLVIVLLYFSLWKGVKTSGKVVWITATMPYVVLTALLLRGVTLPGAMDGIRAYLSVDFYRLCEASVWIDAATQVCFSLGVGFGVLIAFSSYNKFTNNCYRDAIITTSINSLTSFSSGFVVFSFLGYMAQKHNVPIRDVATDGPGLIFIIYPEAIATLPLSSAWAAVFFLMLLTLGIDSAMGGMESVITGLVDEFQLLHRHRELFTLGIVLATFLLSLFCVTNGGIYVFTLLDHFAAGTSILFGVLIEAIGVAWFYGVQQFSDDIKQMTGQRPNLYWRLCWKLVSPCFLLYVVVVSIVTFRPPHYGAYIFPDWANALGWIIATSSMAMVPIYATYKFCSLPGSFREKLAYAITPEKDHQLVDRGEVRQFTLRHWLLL

[15] = locomotor activity tests; cited from earlier work
[16] = displacement of serotonin ligands in vitro, read-out: 5-HT Uptake, Uptake Profile (IC50)
[17] = NE Uptake, Uptake Profile (IC50, nM)
[18] = 5-HT Uptake, Uptake Profile (IC50, nM)

Structure (SMILES): FC(F)(F)c1ccc(OC[C@@H]2CCCN(CC3(c4ccc(Cl)cc4)CCC3)C2)cc1 [compound 114, (R)-1-[1-(4-chloro-phenyl)-cyclobutylmethyl]-3-(4-trifluoromethyl-phenoxymethyl)-piperidine]
- tolerability and mortality after 72 h (rat): well tolerated
- locomotor activity compared to control animals (Sprague-Dawley rats [1]): significant increase
- IC50 (serotonin transporter [2]; read-out: 5-HT Uptake, Uptake Profile (IC50)): > 1000 nM
- EC50 (serotonin transporter [3]): > 1000 nM
- IC50 ([4]; read-out: NE Uptake, Uptake Profile (IC50)): < 1000 nM
- IC50 (dopamine transporter [5]): < 100 nM
- EC50 [6]: < 1 µM
- tolerability and mortality after 72 h (mouse): well tolerated
- EC50 (DAT [7]): < 0.01 µM

Structure (SMILES): CCC(=O)[C@H]1[C@@H](c2ccc(C)cc2)C[C@@H]2CC[C@H]1N2C [PPT, 2β-propanoyl-3β-(4-tolyl)-tropane]
- time of onset after administration [8]: ca. 30 minutes
- addictiveness (rats and monkeys; monkeys): not addictive
- decrease of self-administered cocaine intake (rats and monkeys; monkeys): 70%

Structure (SMILES): Clc1ccc(C2(CN3CCC[C@H](COc4ccc5c(c4)OCO5)C3)CCC2)cc1 [compound 113, (S)-3-(Benzo[1,3]dioxol-5-yloxymethyl)-1-[1-(4-chloro-phenyl)-cyclobutylmethyl]-piperidine]
- tolerability and mortality after 72 h (rat): well tolerated
- locomotor activity compared to control animals (Sprague-Dawley rats [1]): significant increase
- IC50 (serotonin transporter [2]; [16]): < 1000 nM
- EC50 (serotonin transporter [3]): > 1000 nM
- IC50 [4, 17]: < 1000 nM
- IC50 (dopamine transporter [5]): < 100 nM
- EC50 [6]: < 1 µM
- tolerability and mortality after 72 h (mouse): well tolerated
- EC50 (DAT [7]): < 0.01 µM

Structure (SMILES): Clc1ccc(C2(CN3CCC[C@@H](COc4ccc5c(c4)OCO5)C3)CCC2)cc1 [compound 110, (R)-3-(Benzo[1,3]dioxol-5-yloxymethyl)-1-[1-(4-chloro-phenyl)-cyclobutylmethyl]-piperidine]
- tolerability and mortality after 72 h (rat): well tolerated
- locomotor activity compared to control animals (Sprague-Dawley rats [1]): significant increase
- IC50 (serotonin transporter [2]; [16]): < 1000 nM
- EC50 (serotonin transporter [3]): > 1000 nM
- IC50 [4, 17]: < 1000 nM
- IC50 (dopamine transporter [5]): < 100 nM
- EC50 [6]: < 1 µM
- tolerability and mortality after 72 h (mouse): well tolerated
- EC50 (DAT [7]): < 0.01 µM

Structure (SMILES): COC(=O)[C@H]1[C@@H](OC(=O)c2ccccc2)C[C@@H]2CC[C@H]1N2C [cocaine]
- time to peak concentration in brain ([9]; intravenous): 4 to 6 min
- time of peak uptake into the brain [10]: 4 to 6 min
- half-life in the brain [10]: 20 min

Structure (SMILES): FC(F)(F)c1ccc(OC[C@H]2CCCN(CC3(c4ccc(Cl)cc4)CCC3)C2)cc1 [compound 115, (S)-1-[1-(4-chloro-phenyl)-cyclobutylmethyl]-3-(4-trifluoromethyl-phenoxymethyl)-piperidine]
- tolerability and mortality after 72 h (rat): well tolerated
- locomotor activity compared to control animals (Sprague-Dawley rats [1]): significant increase
- IC50 (serotonin transporter [2]; [18]): > 1000 nM
- EC50 (serotonin transporter [3]): > 1000 nM
- IC50 [4, 17]: < 1000 nM
- IC50 (dopamine transporter [5]): < 100 nM
- EC50 [6]: < 1 µM
- tolerability and mortality after 72 h (mouse): well tolerated
- EC50 (DAT [7]): < 0.01 µM

Structure (SMILES): COC(=O)C(c1ccccc1)C1CCCCN1 (stereo not drawn) [methylphenidate, reference compound]
- DAT occupancy (DAT [11]): 70-72%
- “high” in subjects (DAT [11]): no “high” was observed
- Large Movement Occurrences (Sprague-Dawley rats [12]; 20 min): 974.3 ± 125.5 ^
- Small Movement Occurrences (Sprague-Dawley rats [12]; 20 min): 1537.0 ± 97.3 ^
- Large Movement Occurrences (Sprague-Dawley rats [12]; 60 min): 423.9 ± 75.9
- Small Movement Occurrences (Sprague-Dawley rats [12]; 60 min): 992.0 ± 126.7 ^
- Large Movement Occurrences (Sprague-Dawley rats [12]; 120 min): 191.8 ± 37.1 ^
- Small Movement Occurrences (Sprague-Dawley rats [12]; 120 min): 555.0 ± 87.0
- time to peak concentration in brain ([9]; intravenous): 8 to 10 min
- time to peak concentration in brain ([9]; orally dosed): 60 min
- time of peak uptake into the brain [10]: 8 to 10 min
- half-life in the brain [10]: 90 min
- Large Movement Occurrences (Sprague-Dawley rats [13]; 1 hour): 958 ± 118 ^
- Small Movement Occurrences (Sprague-Dawley rats [13]; 1 hour): 1595 ± 83 ^
- Large Movement Occurrences (Sprague-Dawley rats [13]; 3 hours): 504 ± 114 ^
- Small Movement Occurrences (Sprague-Dawley rats [13]; 3 hours): 1072 ± 122^
- Large Movement Occurrences (Sprague-Dawley rats [13]; 5 hours): 196 ± 62^
- Small Movement Occurrences (Sprague-Dawley rats [13]; 5 hours): 612 ± 108 ^
- Large Movement Occurrences (Sprague-Dawley rats [13]; 8 hours): 71 ± 20 ^
- Small Movement Occurrences (Sprague-Dawley rats [13]; 8 hours): 358 ± 65^
- Large Movement Occurrences (Sprague-Dawley rats [13]; 24 hours): 335 ± 68^
- Small Movement Occurrences (Sprague-Dawley rats [13]; 24 hours): 790 ± 81^

Structure (SMILES): Clc1ccc(C2(CN3CCCC(COc4ccccc4)C3)CCC2)cc1 (stereo not drawn) [compound 4]
- IC50 (serotonin transporter [2]; [18]): > 1000 nM
- IC50 [4, 17]: > 1000 nM
- IC50 (dopamine transporter [5]): < 1000 nM
- change in autonomic signs of behavior (ICR derived mice): No obvious change
- mortality (ICR derived mice; monitored daily for 3 days): no mortality
- EC50 (DAT [7]): < 1 µM

Structure (SMILES): CN1[C@H]2CC[C@@H]1[C@@H](C(=O)Oc1ccccc1)[C@@H](c1ccc(Cl)cc1)C2 [RTI-113]
- effectiveness of elimination of cocaine consumption (rats and monkeys; 60% occupancy of the dopamine transporter): 92%
- effect on self-administration of cocaine (rats and monkeys): inhibits self-administration of cocaine
- IC50 (dopamine transporter [14]): 0.00198 µM
- duration of action [15]: over 4 hours
- time to peak action after administration [15]: 30 to 60 min

Structure (SMILES): Cc1ccc(-c2cc([C@@H]3C4CCC(C[C@@H]3c3ccc(Cl)cc3)N4C)on2)cc1 (stereo partly drawn) [RTI-336]
- effect on self-administration of cocaine (rats and monkeys): effective blocking of cocaine self-administration
- IC50 (dopamine transporter [14]): 0.00409 µM
- time to peak action after administration [15]: 70 to 100 min
